From PMC8244912, “An oxytocin/vasopressin-related neuropeptide modulates social foraging behavior in the clonal raider ant” (PLoS Biology, 2021)
Entries after “also recorded” stand apart in the source; their conditions may differ. Where a SMILES comes first, the peptide text is derived from it. Bridges are numbered along the chain shown (N, C = ends).

Columns and labels:
[1] = biological target: O. biroi inotocin receptor (ObiroiItr_A) (Ooceraea biroi, UniProt A0A8F5LPT9); experiment: Calcium flux, HEK293T cells transfected with full-length inotocin receptor (FLIPR Calcium 4); type: cell-based; conditions: for HillSlope / LogEC50: variable slope; for LogEC50: X data log of Molar_Inotocin
Excerpt: RNA was isolated in TRIzol using the RNeasy (Qiagen, Germantown, Maryland, USA) purification kit with DNAse I (Qiagen) on-column digestion as in [52] from a sample that contained adult ants, larvae, and pupae and reverse-transcribed into cDNA. Full-length cDNAs for the O. biroi inotocin receptor were PCR amplified with primers 5′-[…]-3′ and 5′-[…]-3′, using the Easy-A high fidelity polymerase (Agilent, Santa Clara, California, USA) to generate PCR products with 5′-Kozak consensus sequences and 3′-A overhangs. The inotocin receptor cDNAs were cloned into the pcDNA3.3 TOPO TA cloning vector (Invitrogen, Waltham, Massachusetts, USA) following manufacturer’s guidelines.
The full-length inotocin receptor cDNA sequence that was cloned and used for calcium assays is ObiroiItr_A (GenBank MW660838; for protein sequence, see S1 Fig). We also tested splice variant ObiroiItr_H (GenBank MW660845; for protein sequence, see S1 Fig), which lacks TM4-7, for calcium activity.
Human embryonic kidney 293T (HEK293T) cells were cultured in DMEM supplemented with 10% FBS at 37°C in a tissue culture incubator with a humidified atmosphere containing 5% CO2. Cells were plated in 10-cm dishes, and, when they reached 60% to 70% confluency, they were transfected with a pcDNA3.3 vector containing approximately 1 ng of inotocin receptor cDNA or an empty vector as a control using Lipofectamine 2000. Cells were transfected directly into poly-D-lysine–coated 384-well plates and incubated for 48 hours at 37°C. Subsequently, cells were incubated with FLIPR Calcium 4 Assay kit dye for 1 hour in the incubator. The fluorescence (excitation, 488 nm; emission, 530 nm) of the wells was recorded using a Flex Station II 384 (Molecular Devices, San Jose, California, USA), […], in sextuplicate (see below for inotocin peptide synthesis). We calculated the EC50 values using Prism (GraphPad Software version 8) nonlinear regression, 4-parameter logistic curve fit. Dose curves were repeated at least 3 times on independently prepared samples and different days.

Ooceraea biroi ants = experiment: Pharmacological immersion, age- and brood-controlled colonies: distance traveled (automated tracking); type: in vivo; conditions: for foraging activity / distance traveled vs control peptide: immersion in 1 mM, 5 h, n = 20 ants
Excerpt: Mature O. biroi inotocin peptide (CLITNCPRG) was synthesized and cyclized at The Rockefeller University Proteomics Resource Center, along with a scrambled version of the peptide (NRPCGLTCI) as a negative control with identical amino acid composition.
For the full experiment (Fig 3), we set up 20 experimental colonies of line B ants that were color painted as previously described. Each colony consisted of 16 ants in an airtight Petri dish with 5-cm diameter. Eight ants in each colony were 3 weeks old, and 8 ants in each colony were 20 weeks old. We added ten 3- to 4-day-old larvae to each of 10 colonies and 10 white (young) pupae to each of the remaining 10 colonies. Brood items often die soon after introduction to a colony, so we added 2 extra brood items per colony to ensure there were 8 alive at the start of the experiment. After the ants had settled for 3 days, we adjusted the number of brood items to 8 per colony, after which we performed the pharmacological treatments. The rationale of having a 1:2 larvae-to-workers ratio in this experiment was to assess the possible effect of increased inotocin levels on worker behavior without saturating the brood signal, as ant larvae regulate worker foraging behavior in a dose-dependent manner.
On the day of the experiment, colonies were not fed. To avoid disturbance to the colony as much as possible, half the colony was left untreated, and half was treated. The treatments consisted of immersing the ants in 1 mM solution of freshly dissolved inotocin or control peptide diluted in water and kept on ice. The immersion took place in 1.5-ml Eppendorf tubes that were gently tapped against the bench top for 7 consecutive minutes, after which the liquid was removed using a 1.5-ml transfer pipette. The remaining liquid was removed with a Kimwipe, and ants were transferred to their source colony. In each colony, we treated 2 ants per age category with inotocin and 2 ants per age category with the control peptide. Ants were allowed to recover for 1 hour after the treatment before the start of the video recordings.
Videos were recorded for 5 hours at 5 frames per second using Logitech C910 USB cameras. Individual ants were tracked using anTraX [85]. In short, ants were segmented using a background subtraction and fixed threshold procedure. Blobs in consecutive frames were threaded into sequences using the Horn–Schunk optical flow method and then classified as single ants or multiple ants based on blob size and linkage criteria. Single ant blob sequences were classified into their appropriate IDs as detailed in [85]. Ants that were detected as single blobs were deemed “active,” and their location was recorded (Fig 3B). The activity level of an ant was defined as the total distance traveled, and an activity time course was created for each ant by summing its activity in time bins of 15 minutes for the entire duration of the experiment. All ants in a colony were tracked. The activity across ants from a given condition from all experimental colonies was averaged in each time bin. The resulting curves were fitted with first- or second-order polynomials using nonlinear regression (least squares fit). The fitted curves were compared using extra sum-of-squares F-tests to select for the best fitted model and to compare between fitted curves, and statistical significance thresholds were adjusted for 2 comparisons within experiments using Bonferroni corrections (old inotocin versus old mock and young inotocin versus young mock). […]

[2] = tested on: O. biroi inotocin receptor ObiroiItr_A; experiment: Calcium imaging (fura-2), full-length receptor isoform A with G protein 16; type: cell-based, Ooceraea biroi; conditions: ObiroiItr_A and G protein 16; fura-2, 510 nm, ex 340/380 nm; peptide for 15 s
Experimental: Experiments were conducted following Garrison J.L., et al 2012 [8] with modifications. Human embryonic kidney 293T cells (HEK293T) were cultured in DMEM and supplemented with 10% FBS at 37 °C in a cell incubator containing 5% CO^2. Cells were grown in 35 mm MatTek glass bottom dishes to a level of 60 – 70% confluency. Cells were transfected with a 1:1 ratio of PCDNA3.3 containing ~ 1μg of itcR cDNA (full-length isoform A or truncated isoform H) (See S1 Fig for isoforms) and pcDNA3-alpha 16 (encoding promiscuous G protein 16) using Lipofectamine 2000. Cells were incubated for 24 h at 37 °C and then transferred to 28 °C for another 16-24 h. For control experiments, empty vector was also transfected. On the day of the experiment, the cells were loaded with […] fura-2/AM (Invitrogen) for 25 min at 37 °C. Inotocin peptide diluted in Ringer’s solution was applied to the cells for 15 s with a peristaltic pump, and fluorescence at 510 nm was monitored (excitation at 340/380 nm) using a MetaFluor calcium imaging system with a Nikon Eclipse TE2000U microscope.

Chain of O. biroi inotocin receptor (ObiroiItr_A) (A0A8F5LPT9 entry or part of it): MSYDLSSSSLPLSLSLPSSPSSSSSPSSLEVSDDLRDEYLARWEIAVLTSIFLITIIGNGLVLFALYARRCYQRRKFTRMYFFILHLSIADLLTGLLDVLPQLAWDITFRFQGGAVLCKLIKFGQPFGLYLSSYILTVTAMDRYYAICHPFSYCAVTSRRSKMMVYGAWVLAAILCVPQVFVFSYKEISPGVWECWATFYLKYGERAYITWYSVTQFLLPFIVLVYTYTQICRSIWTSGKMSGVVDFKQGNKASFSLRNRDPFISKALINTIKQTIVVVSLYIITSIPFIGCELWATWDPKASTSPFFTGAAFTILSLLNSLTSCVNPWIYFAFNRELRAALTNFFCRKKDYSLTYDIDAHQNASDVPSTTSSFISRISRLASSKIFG

CC[C@H](C)[C@@H]1NC(=O)[C@H](CC(C)C)NC(=O)[C@@H](N)CSSC[C@@H](C(=O)N2CCC[C@H]2C(=O)N[C@@H](CCCNC(=N)N)C(=O)NCC(N)=O)NC(=O)[C@H](CC(N)=O)NC(=O)[C@H]([C@@H](C)O)NC1=O [Inotocin] (H-CLITNCPRG-NH2; disulfide 1-6; N-terminus and C-terminus assumed)
HillSlope ([1]; Fig 1C data, Experiment 33015, SE 0.01132, 95% CI 0.2802 to 0.3251): 0.3027 | LogEC50 ([1]; Fig 1C data, Experiment 33015, SE 0.05558, 95% CI -11.24 to -11.02): -11.13 | calcium response ([1]; HEK293T cells expressing full-length itcR): responds in a dose-dependent manner to inotocin; also recorded: responded with calcium signals | HillSlope ([1]; S4A Fig, 032515_plate 2, SE 0.02063, 95% CI 0.2625 to 0.3443): 0.3034 | LogEC50 ([1]; S4A Fig, 032515_plate 2, SE 0.1002, 95% CI -11.47 to -11.07): -11.27 | half-maximal effective concentration (EC50), in words ([1]; cells transfected with the inotocin receptor, calcium signals): picomolar | foraging activity / distance traveled vs control peptide (Ooceraea biroi ants; old ants, larvae present, p < 0.0002, Bonferroni corrected): forage more than old ants treated with a control peptide; also recorded: displayed increased foraging activity in the presence of larvae; also recorded: had higher average distance traveled than ants under any other experimental condition | foraging activity / distance traveled vs control peptide (Ooceraea biroi ants; old ants, pupae present, p = 0.998, p > 0.99, Bonferroni corrected): no difference in foraging activity was found; also recorded: no effect of inotocin treatment was observed | tendency to leave the nest (Ooceraea biroi ants; overall statement, contingent on age and social context): increases the tendency of ants to leave the nest | foraging activity / distance traveled vs control peptide (Ooceraea biroi ants; young ants, larvae present, p = 0.106, p = 0.109, Bonferroni corrected): No difference in foraging activity was detected; also recorded: no behavioral difference | foraging activity / distance traveled vs control peptide (Ooceraea biroi ants; young ants, pupae present, p < 0.0002, Bonferroni corrected): foraged more when treated with inotocin; also recorded: slightly increased their activity; also recorded: increased their average distance traveled compared to ants under any other experimental condition | calcium signal [2]: Calcium signal is detected
